# Experimental data from patent EP3827825A1, “USE OF 3, 4-DIARYLPYRAZOLES AS ANTIBACTERIAL AGENTS” (Wageningen Universiteit, priority 2019, dated 2021).
# Read-outs that look alike come from different tables or passages of the source.
# How the values were obtained:
# P. multocida = assay: Minimal inhibitory concentration (MIC), double-dilution in broth, OD600; type: cell-based, Pasteurella multocida; settings: unit assumed
# Description: (§1) In short, a stock solution of 5 mg/mL of HKIs in DMSO was made. This stock was diluted to 50 µg/mL in broth in a 96 well plate. Dilutions were made (factor 2) directly in the plate with a multi-channel pipet. Bacteria cultured in suspension overnight were then added to the plate (except negative control) and the plate was incubated for 24 hours. After 24 hours the OD600 was measured using a spectrophotometer. A positive control (with bacteria, without HKI) was also measured on each plate. The MICs were not determined in duplo/triplicate in the same experiment, however, the MICs of several HKIs were measured in different experiments and no major differences (max. 1x dilution) were found in the MICs between the experiments.
# (§2) Bacterial strains used in this study for antibacterial susceptibility testing (Table S2) were propagated using standard microbiological procedures. Minimal inhibitory concentrations (MICs) were determined following a standard double-dilution method (42), 73. MICs were recorded as the lowest concentration of the compound where no visible growth was observed. After plating the dilutions around the MIC or growing them in fresh MH media, minimal bactericidal concentration (MBC) was recorded as the lowest concentration of the compound at which no colonies were formed or no growth was observed, respectively. For M. marinum, MICs were determined in Middlebrook 7H9 broth (Difco) and MICs were determined after 3 days incubation at 30 °C.
# (§3) Grow the bacterial colonies to be tested from single colonies on an agar plate in LB broth or suitable bacterial growth medium overnight at 37°C. Prepare a 5 mg/mL stock solution of compounds to be tested in DMSO. One 96-well plate per bacterial strain was prepared. First, put 50 uL of medium to each well. Add 48 µL of medium to all wells in row A. Pipet 2 µL of antimicrobial master stock into the top well (row A). Beware, the antimicrobial concentration will be diluted 2x after adding the bacterial culture. Total volume in each well will be 100 µL. In A11, pipet 2 µL of DMSO. Make a serial dilution from row A to row H, pipetting 50 µL from the previous row into the new one. Mix well by pipetting up and down. Discard the last 50 µL so that there is 50 µl in each well In a clean, new plastic pipetting cup, dilute the overnight bacterial culture 100 times. Add 100 µL of bacterial overnight culture to 9900 µL of medium. Mix the suspension well. Once the serial dilutions are complete for all antimicrobial compounds, add 50 µL of diluted overnight bacterial culture to each well (except column 12). Mix by pipetting or put the plate on the shaker. Per 2 plates, close with parafilm around the edges and place in the incubator overnight. After overnight culturing, measure bacterial growth on the SpectraMax. The lowest concentration where no growth is observed is the MIC. To determine the MIB pipette 5 µL from each well of the 96 well plate where now growth was observed on to an LB agar plate, without antimicrobial. Put the plates in the incubator to grow overnight. The minimal concentration where no growth can be seen on the agar plate is the MBC.
# E. coli JW5503 = type: cell-based, Escherichia coli; settings: unit assumed
# Description: as §1, §2, §3
# S. aureus Newman = assay: Minimal inhibitory concentration (MIC), double-dilution in broth, OD600; type: cell-based, Staphylococcus aureus Newman; settings: unit assumed
# Description: as §1, with “plate.” for “plate. The MICs were not determined in duplo/triplicate in the same experiment, however, the MICs of several HKIs were measured in different experiments and no major differences (max. 1x dilution) were found in the MICs between the experiments.”
# Bacterial strains used in this study for antibacterial susceptibility testing (Table S2) were propagated using standard microbiological procedures. Minimal inhibitory concentrations (MICs) were determined following a standard double-dilution method (42), 73. […] For M. marinum, MICs were determined in Middlebrook 7H9 broth (Difco) and MICs were determined after 3 days incubation at 30 °C.
# as §3
# E. faecium Van A = assay: as above; type: cell-based, Enterococcus faecium; settings: unit assumed
# Description: as §1, §2, §3
# HEK293 = assay: Cell toxicity, Alamar blue assay, 24 hours exposure; type: cell-based; settings: Homo sapiens
# Description: (§4) Toxicity was primarily determined by measuring cytotoxicity with the Alamar blue assay. In short, cells (HEK293, NRK-52E and Caco-2) were plated in 96-well plates and cultured overnight. HKI compounds were diluted to concentrations ranging from 0.39 to 500 µg/mL in serum-free medium and added to the cells.
# (§5) After exposure, cells were incubated for 24 hours. Experiments were mostly performed by single measurement. […] After 24 hours HKIs were removed from the cells and Alamar blue was added, incubated for 45 minutes and fluorescence was measured on a spectrophotometer. Alamar blue measures the conversion of blue, low fluorescent resazurin into high fluorescent pink resorufin. This conversion can only be made in viable mitochondria in viable cells and therefore this dye provides a measure for cytotoxicity.
# NRK-52E = assay: as above; type: cell-based; settings: Rattus norvegicus
# Description: as §4, §5
# M. marinum = assay: Minimal inhibitory concentration (MIC), Middlebrook 7H9 broth, 3 days at 30 °C; type: cell-based, Mycobacterium marinum; settings: unit assumed
# Description: as §1, §2, §3
# S. suis = assay: Minimal inhibitory concentration (MIC), double-dilution in broth, OD600; type: cell-based, Streptococcus suis; settings: unit assumed
# Description: as §1, §2, §3
# [1] = HEK293, read-out: IC50 HEK293 (50 mg/mL stock)
# [2] = read-out: IC50 NRK-52E (50 mg/mL stock)
# [3] = HEK293, read-out: IC50 HEK293 (5 mg/mL stock)
SMILES,MIC P. multocida (P. multocida) [µg/mL],MIC E. coli JW5503 (E. coli JW5503) [µg/mL],MIC S. aureus Newman (S. aureus Newman) [µg/mL],MIC E. faecium Van A (E. faecium Van A) [µg/mL],IC50 (HEK293; [1]) [µg/mL],IC50 (NRK-52E; [2]) [µg/mL],MIC M. marinum (M. marinum) [µg/mL],MIC S. suis (S. suis) [µg/mL],IC50 (HEK293; [3]) [µg/mL],"IC50 (HEK293; read-out: IC50 HEK293 (50 mg/mL stock), HEK293, 50 mg/mL stock) [µg/mL]","IC50 (NRK-52E; read-out: IC50 NRK-52E (50 mg/mL stock), 50 mg/mL stock) [µg/mL]"
"Oc1cc(OCc2ccccc2)ccc1-c1n[nH]c(C(F)(F)F)c1-c1ccc(Br)cc1 [May-15, 5-benzoxy-2-[4-(4-bromophenyl)-5-(trifluoromethyl)-1∼{H}-pyrazol-3-yl]phenol]",> 50,> 50,1.56,3.13,6.9,5.13,12.5,3.13,–,–,–
"COc1ccc(-c2n[nH]c(C(F)(F)F)c2-c2ccc(Cl)cc2)c(O)c1 [May-16, 2-[4-(4-chlorophenyl)-5-(trifluoromethyl)-1∼{H}-pyrazol-3-yl]-5-methoxy-phenol]",25,1.56,3.13,–,–,–,50,3.13,3.59,–,–
"COc1ccc(-c2n[nH]c(C(F)(F)F)c2-c2ccccc2)c(O)c1 [May-21, 5-methoxy-2-[4-phenyl-5-(trifluoromethyl)-1∼{H}-pyrazol-3-yl]phenol]",50,3.13,12.5,–,46.9,~15.6,> 50,25,6.47,–,–
"NNC(=O)COc1ccc(-c2[nH]nc(C(F)(F)F)c2-c2ccccc2)c(O)c1 [May-25, 2-[3-hydroxy-4-[4-phenyl-5-(trifluoromethyl)-1∼{H}-pyrazol-3-yl]phenoxy]acetohy drazide]",50,6.25,12.5,25,–,106,–,–,27.6,–,–
"COc1ccc(-c2c(C(F)(F)F)n[nH]c2-c2ccc(OCc3ccccc3)cc2O)cc1 [May-26, 5-benzoxy-2-[4-(4-methoxyphenyl)-5-(trifluoromethyl)-1∼{H}-pyrazol-3-yl]phenol]",> 50,3.13,1.56,–,4.8,9.64,12.5,3.13,–,–,–
"CCOc1ccc(-c2n[nH]c(C)c2-c2ccc(Cl)cc2)c(O)c1 [Sep-22, 2-[4-(4-chlorophenyl)--5-methyl-1∼{H}-pyrazol-3-yl]-5-ethoxy-phenol]",> 50,–,50,> 50,23.6,~1480,> 50,50,–,–,–
"COc1ccc(-c2n[nH]cc2-c2ccc(Cl)cc2)c(O)c1 [Sep-23, 2-[4-(4-chlorophenyl)-1∼{H}-pyrazol-5-yl]-5-methoxy-phenol]",> 50,–,25,> 50,39.7,259,> 50,> 50,9.14,–,–
"NNC(=O)COc1ccc(-c2n[nH]c(C(F)(F)F)c2-c2ccc(Cl)cc2)c(O)c1 [Sep-24, 2-[4-[4-(4-chlorophenyl)-5-(trifluoromethyl)-1∼{H}-pyrazol-3-yl]-3-hydroxy-phenoxy]acetohydr azide]",> 50,–,50,50,–,–,> 50,> 50,–,119,104
